From PubChem BioAssay AID1033 (Sanford-Burnham Center for Chemical Genomics, 2008)
Calls of active or inactive are those of the source. How the calls were made is not given here.

target: Chaperone protein DnaK (Escherichia coli (strain K12)) (UniProt P0A6Y8); experiment: binders of DnaK substrate-binding domain, biophysical, NMR, chaperone (AID 1033); settings: Purified DnaK SBD, NMR ligand binding
Sequence (P0A6Y8 whole entry, looked up, the tested form may be a part): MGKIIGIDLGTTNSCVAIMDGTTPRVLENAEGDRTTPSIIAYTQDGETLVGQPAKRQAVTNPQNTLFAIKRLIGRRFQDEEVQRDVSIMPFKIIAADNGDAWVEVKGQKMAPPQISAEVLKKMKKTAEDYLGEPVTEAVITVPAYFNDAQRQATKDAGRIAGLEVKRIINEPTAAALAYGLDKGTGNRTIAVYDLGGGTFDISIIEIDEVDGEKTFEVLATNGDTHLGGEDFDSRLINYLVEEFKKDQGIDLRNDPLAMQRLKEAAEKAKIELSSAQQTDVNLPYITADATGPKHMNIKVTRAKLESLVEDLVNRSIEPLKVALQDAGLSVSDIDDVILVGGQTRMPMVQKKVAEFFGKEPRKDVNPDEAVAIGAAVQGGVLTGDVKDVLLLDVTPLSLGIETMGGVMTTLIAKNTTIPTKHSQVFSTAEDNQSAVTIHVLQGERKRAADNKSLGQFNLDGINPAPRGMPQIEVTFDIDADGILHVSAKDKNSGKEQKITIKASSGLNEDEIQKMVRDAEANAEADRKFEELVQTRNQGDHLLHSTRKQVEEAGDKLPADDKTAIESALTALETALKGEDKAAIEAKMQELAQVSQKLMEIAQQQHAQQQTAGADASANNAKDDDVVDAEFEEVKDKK

SMILES | Kd
CC1CC[C@]2(NC1)O[C@H]1CC3C4CC[C@H]5C[C@@H](O)CC[C@]5(C)C4CC[C@]3(C)[C@H]1[C@@H]2C (stereo partly specified) | > 4 mM (inactive)
C[C@@H]1CCC2[C@](C)(CO)[C@@H](O)CC[C@]2(C)[C@@]12CC[C@@](CO)(CCO)O2 (stereo partly specified) | > 4 mM (inactive)
O=C(Nc1nnc(-c2ccncc2)o1)c1cccs1 | > 4 mM (inactive)
Nc1ccc(N2CCOCC2)cc1 | > 4 mM (inactive)
Oc1cc(O)cc(/C=C/c2ccccc2)c1 | > 4 mM (inactive)
NC(=O)CCn1c(=O)oc2ccccc21 | > 4 mM (inactive)
O=CN1CCN(C(=O)c2ccc(F)cc2)CC1 | > 4 mM (inactive)
NC(=O)CSc1ccc(-c2ccccc2)nn1 | > 4 mM (inactive)
CC(=O)NC(C)(C)C1CC=C(C)/C(=N\O)C1 (stereo unspecified) | > 4 mM (inactive)
OCC1CCN(Cc2ccccc2)CC1 | > 4 mM (inactive)
CCOC(=O)CSCC(=O)Nc1nccs1 | > 4 mM (inactive)
O=C(Nc1nnc(-c2ccco2)o1)c1ccc([N+](=O)[O-])o1 | > 4 mM (inactive)
Cc1cc(SCC(=O)Nc2nccs2)nc(=O)[nH]1 | > 4 mM (inactive)
NC1=C(c2ccccc2)C(=O)c2ccccc21 | > 4 mM (inactive)
COc1ccc2c(c1)CCCN2C(N)=O | > 4 mM (inactive)
S=c1[nH]cnc2sccc12 | > 4 mM (inactive)
O=C(O)C1(S(=O)(=O)c2ccccc2)CC1 | > 4 mM (inactive)
O=C(Nc1ccon1)c1cc2c(s1)CCCC2 | > 4 mM (inactive)
N=c1c2c3c(sc2ncn1N)CCCC3 | > 4 mM (inactive)
Cn1c2ccccc2n2c(=S)[nH]nc12 | > 4 mM (inactive)
CNC(=O)N1CCN(C(=O)NC)CC1 | > 4 mM (inactive)
Cc1nnsc1C(=O)Nc1ccccc1[N+](=O)[O-] | > 4 mM (inactive)

SMILES | Kd
O=C(O)c1c[nH]c2ccccc12 | > 4 mM (inactive)
COc1cc(/C=C2\SC(=S)NC2=O)ccc1O | > 4 mM (inactive)
NC(C(=O)O)C(O)c1ccccc1 (stereo unspecified) | > 4 mM (inactive)
O=C1CSC(=Nc2ccc(Cl)cc2)N1 | > 4 mM (inactive)
CC12CN([N+](=O)[O-])C3(C(N)=O)CC1CCC23C (stereo unspecified) | > 4 mM (inactive)
Cc1nn(-c2ccccc2C(=O)O)c(=O)c2ccccc12 | > 4 mM (inactive)
CC(=O)Nc1ccc(C(=O)N2CCOCC2)cc1Cl | > 4 mM (inactive)
Cc1nc(-c2ccccc2)sc1CO | > 4 mM (inactive)
O=C1NCCCC1C(=O)N1CCCCC1 (stereo unspecified) | > 4 mM (inactive)
N#Cc1nc(-c2ccccc2Cl)oc1N1CCOCC1 | > 4 mM (inactive)
Nc1cc(N)nc(SCc2cccnc2)n1 | > 4 mM (inactive)
COc1cc(-c2coc3cc(OCc4ccccc4)c(OC)c(O)c3c2=O)cc(O)c1OC | > 4 mM (inactive)
CCOC(=O)c1ccc2c(c1)nnn2C | > 4 mM (inactive)
COC(=O)c1c(C)cc(OC(=O)c2c(C)cc(O)c(C=O)c2O)c(C)c1O | > 4 mM (inactive)
O=C(CS(=O)(=O)c1ccccc1)N1CCCCCC1 | > 4 mM (inactive)
O=C(c1cnsn1)N1CCN(c2ccccn2)CC1 | > 4 mM (inactive)
CCOC12NC(=O)CC(=O)N1C(c1ccccc1)=CS2 (stereo unspecified) | > 4 mM (inactive)
CC(=O)NC1C(=O)Nc2c(C)cc(C)cc21 (stereo unspecified) | > 4 mM (inactive)
CCc1cc2c(SCC(=O)O)ncnc2s1 | > 4 mM (inactive)
CC(=O)Nc1cnn(-c2ccccc2)c(=O)c1Cl | > 4 mM (inactive)
CN1CCN(C(=O)/C=C\C(=O)O)CC1 | > 4 mM (inactive)
O=C1c2ccncc2C(=O)N1CO | > 4 mM (inactive)

SMILES | Kd
Cc1nn(-c2ccccc2)nc1C(=O)O | > 4 mM (inactive)
CC(C)CCn1cnc2c1c(=O)n(C)c(=O)n2C | > 4 mM (inactive)
Cc1cccnc1NC1=NCC(C)S1 (stereo unspecified) | > 4 mM (inactive)
O=C(O)Cn1cc(C(=O)c2cccs2)c2ccccc21 | > 4 mM (inactive)
O=C1C2C3C=CC(C3)C2C(=O)N1CCCO (stereo unspecified) | > 4 mM (inactive)
CO[C@H]1[C@@H](O)[C@@H](C)O[C@H](O[C@H]2CCC3(C)C4CCC5(C)[C@@H](C6=CC(=O)OC6)CC[C@]5(O)[C@@H]4CC[C@]3(O)C2)[C@@H]1O (stereo partly specified) | > 4 mM (inactive)
Cn1ccc(NC(=S)NC2CCCC2)n1 | > 4 mM (inactive)
C=CCSCC=C | > 4 mM (inactive)
C=C1C(=O)O[C@@H]2C3OC3(C)CC/C=C(\C)CC[C@@H]12 (stereo partly specified) | > 4 mM (inactive)
COCC(=O)Nc1cccc(Br)c1 | > 4 mM (inactive)
CC(=O)NC(=S)Nc1nc2ccccc2n1C(C)=O | > 4 mM (inactive)
Nc1ccc(NS(=O)(=O)c2ccc(N)cc2)cc1 | > 4 mM (inactive)
CSc1nc2nc(C)cc(=O)n2[nH]1 | > 4 mM (inactive)
CCOC(=O)N1CCN(c2ncnc3c2cnn3C)CC1 | > 4 mM (inactive)
CC1CC[C@@]2(OC1)O[C@H]1CC3C4CC[C@@H]5C[C@@H](O)CC[C@]5(C)C4CC[C@]3(C)[C@H]1[C@@H]2C (stereo partly specified) | > 4 mM (inactive)
CC(C)c1ccc(NC(=O)C(N)=O)cc1 | > 4 mM (inactive)
CN(C)C(=S)Nc1ccccc1N1CCOCC1 | > 4 mM (inactive)
COc1ccc(Cl)c(S(=O)(=O)N2CCCC2)c1 | > 4 mM (inactive)
CC(=O)c1cccc(NC(=O)N2CCc3ccccc3C2)c1 | > 4 mM (inactive)
CC(=O)c1ccc(CC2SC(N)=NC2=O)cc1 (stereo unspecified) | > 4 mM (inactive)
OC1(c2ccc(Cl)cc2)CCNCC1 | > 4 mM (inactive)
Cn1c(=O)c2c(ncn2CCNC2=NCCC2)n(C)c1=O | > 4 mM (inactive)

SMILES | Kd
Cn1cnc([N+](=O)[O-])c1Sc1ncnc2nc[nH]c12 | > 4 mM (inactive)
Cc1cccn2cc(CNc3ccccc3)nc12 | > 4 mM (inactive)
O=c1/c(=C/c2ccccc2F)sc2ncnn12 | > 4 mM (inactive)
OCc1ccccc1N1CCOCC1 | > 4 mM (inactive)
CN(C)c1n[nH]c(=O)[nH]c1=O | > 4 mM (inactive)
O=C(Oc1ccc(-c2nnco2)cc1)N1CCCCC1 | > 4 mM (inactive)
CC(=O)N1CCN(c2ccc(O)cc2)CC1 | > 4 mM (inactive)
Clc1ncc2[nH]cnc2n1 | > 4 mM (inactive)
c1cncc(-c2nnc(-c3cccnc3)nn2)c1 | > 4 mM (inactive)
O=C(O)Cc1c[nH]c2ccccc12 | > 4 mM (inactive)
Cc1noc(C)c1C(=O)N1CCc2ccccc2C1 | > 4 mM (inactive)
CC(=O)Nc1cnn(Cc2ccc(Br)cc2)c1 | > 4 mM (inactive)
COc1c2ccoc2cc2oc(C)cc(=O)c12 | > 4 mM (inactive)
O=C(Nc1c[nH]c(=O)[nH]c1=O)c1ccccc1F | > 4 mM (inactive)
C=C1C2CC[C@@]3(C)[C@H](c4ccoc4)OC(=O)C[C@]13O[C@H]1CC(=O)C(C)(C)[C@H](C(O)C(=O)OC)[C@@]21C (stereo partly specified) | > 4 mM (inactive)
O=C(Nc1nnc(-c2cccnc2)o1)c1ccccc1F | > 4 mM (inactive)
O=C(O)c1ccccc1C(=O)NCC1CCCO1 (stereo unspecified) | > 4 mM (inactive)
Cc1nc(CC(=O)O)c(-c2ccccc2)s1 | > 4 mM (inactive)
N#Cc1cnc(N2CCCCC2)nc1N | > 4 mM (inactive)
CCCCCCCCCCCCCc1ccco1 | > 4 mM (inactive)
